Assay results: US6777426B2, “Imidazole and imidazoline derivatives and uses thereof” (Synaptic Pharmaceutical Corporation, priority 1997, dated 2004)
pEC50: −log10 of the molar value. Structures can show the parent of a compound that is named as a salt. Where two headings read alike, the source gives them in different places.

Columns and labels:
[1] = target: T1, human α2a adrenergic receptor (Homo sapiens, UniProt P08913); assay: α2 agonist activity: inhibition of forskolin-stimulated cAMP synthesis, α2a cells; format: cell-based
T1 construct: expressed in transfected cells; host or cells: LM(tk−) cells (L-α2A, ATCC CRL-11180), vector pCEXV-3
T1 sequence (P08913 1-465): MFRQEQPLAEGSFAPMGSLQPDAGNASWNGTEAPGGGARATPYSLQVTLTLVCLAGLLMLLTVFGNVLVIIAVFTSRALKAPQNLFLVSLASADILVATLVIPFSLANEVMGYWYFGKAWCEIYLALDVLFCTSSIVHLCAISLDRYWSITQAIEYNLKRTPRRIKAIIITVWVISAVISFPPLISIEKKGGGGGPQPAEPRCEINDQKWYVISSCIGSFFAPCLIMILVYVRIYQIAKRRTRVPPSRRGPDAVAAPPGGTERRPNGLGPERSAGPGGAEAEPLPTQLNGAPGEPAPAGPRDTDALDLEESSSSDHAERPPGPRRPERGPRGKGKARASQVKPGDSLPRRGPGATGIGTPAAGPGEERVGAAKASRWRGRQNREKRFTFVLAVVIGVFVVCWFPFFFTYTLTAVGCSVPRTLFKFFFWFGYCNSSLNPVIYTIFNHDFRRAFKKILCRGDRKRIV
Procedure: (§1) Binding and functional assays were performed using stably transfected cells expressing human α adrenergic receptors. Equilibrium competition binding assays were performed with membrane preparations from cultured LM(tk−) cells stably transfected with the cloned human adrenoceptor subtypes except for a21, which was expressed In Y-1 cells, using [^3H]prazosin for α1 receptors and [^3H]rauwolscine for […].
(§2) These cell lines were prepared by transfecting cloned cDNA or cloned genomic DNA or constructs containing both genomic DNA and cDNA encoding the human a adrenergic receptors as described below.
(§3) The agonist activity (expressed as pEC50) was measured as a function of the ability to inhibit the forskolin-stimulated synthesis of cyclic adenosine monophosphate (cAMP). The stably transfected cells were incubated in Ham's F10 with 5 mM theophylline, 10 mM HEPES, 17 mM pargyline, and/or appropriate concentrations of forskolin for 20 min. at 37° C. in 5% CO2. The tested compounds were then added to a final concentration of 0.001 nM to 1 mM and incubated for an additional 15 min. at 37° C. in 5% CO2. The medium was aspirated and the reaction was stopped by the addition of 100 mM HCl. […] The plates were stored at 4° C. for 15 min. and assayed to determine the linear concentration of cAMP. The appropriate dilution was interpolated from the standard curve of cold cAMP. The assessment of cAMP formation was determined by radioimmunoassay (cAMP radioimmunoassay kit; Advanced magnetics, Cambridge, Mass.). Radioactivity was quantified using a Packard COBRA Auto Gamma counter equipped with data reduction software.

[2] = target: T2, human α2b adrenergic receptor (Homo sapiens, UniProt P18089); assay: Equilibrium competition binding, [3H]rauwolscine, cloned human α2b; conditions: cloned human α2b, membrane preparations, [3H]rauwolscine; read-out: α2b pKi (converted)
T2 construct: expressed in transfected cells; host or cells: stably transfected cells, vector pcEXV-3; deposited line L-NGC-α2B (ATCC CRL-10275)
T2 sequence (P18089 1-450): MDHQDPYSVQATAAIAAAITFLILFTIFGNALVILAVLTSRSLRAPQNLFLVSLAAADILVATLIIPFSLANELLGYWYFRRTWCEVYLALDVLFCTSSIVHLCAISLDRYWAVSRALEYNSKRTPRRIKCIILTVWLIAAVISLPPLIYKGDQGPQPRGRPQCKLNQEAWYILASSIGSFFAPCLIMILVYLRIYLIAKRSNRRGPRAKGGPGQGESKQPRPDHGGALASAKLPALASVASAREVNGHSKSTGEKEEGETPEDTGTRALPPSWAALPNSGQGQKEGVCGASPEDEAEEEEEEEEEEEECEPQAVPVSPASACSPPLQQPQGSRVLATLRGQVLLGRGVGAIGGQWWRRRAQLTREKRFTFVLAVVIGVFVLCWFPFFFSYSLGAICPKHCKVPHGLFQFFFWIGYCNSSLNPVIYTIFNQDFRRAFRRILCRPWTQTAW
Procedure: as §1, §2
Stable cell lines were selected as described above.
(§4) The stable cell lines described above were scraped from culture flasks into 5 mL of 5 mM Tris-HCl, […], pH 7.5, and lysed by sonication. The cell lysates were centrifuged at 1,000 rpm for 5 min. at 4° C., and the supernatant was centrifuged at 30,000×g for 20 min. at 4° C. The pellet was suspended in 50 mM Tris-HCl, 1 mM MgCl2, and 0.1% ascorbic acid at pH 7.5. Binding of the α2 antagonist [^3H]rauwolscine (0.5 nM) or the α1 antagonist [^3H]prazosin (0.5 nM) to membrane preparations of LM(tk−) cells was done in a final volume of 0.25 mL and incubated at 37° C. for 20 min. Nonspecific binding was determined in the presence of […]. The reaction was stopped by filtration through GF/B filters using a cell harvester.

[3] = target: T2, human α2b adrenergic receptor; assay: α2 agonist activity: inhibition of forskolin-stimulated cAMP synthesis, α2b cells; format: cell-based; conditions: inhibition of forskolin-stimulated cAMP, cloned human α2b; for EC50: read-out: α2b pEC50 (converted)
Procedure: as §1, §2, §3

[4] = target: T1, human α2a adrenergic receptor; assay: Equilibrium competition binding, [3H]rauwolscine, cloned human α2a; conditions: cloned human α2a, membrane preparations, [3H]rauwolscine; read-out: α2a pKi (converted)
Procedure: as §1, §2
The insert housing this coding region was a 2.5 kb Kpnl/HindIII human placenta genomic fragment which was end-blunted by either T4 polymerase or Klenow fragment of DNA polymerase. Stable cell lines were obtained by to-transfection with the plasmid pGCcos3neo (plasmid containing the α2a receptor gene) and the plasmid pGCcos3neo (plasmid containing the aminoglycoside transferase gene) into LM(tk−), CHO, and NIH3T3 cells, using calcium phosphate technique. The cells were grown in a controlled environment (37° C., 5% CO2) as monolayers in Dulbecco's modified Eagle's Medium (GIBCO, Grand Island, N.Y.) containing 25 mM glucose and supplemented with 10% bovine calf serum, 100 units/mL penicillin g, and […] streptomycin sulfate.
as §4

[5] = target: T3, human α2c adrenergic receptor (Homo sapiens, UniProt P18825); assay: Equilibrium competition binding, [3H]rauwolscine, cloned human α2c; conditions: cloned human α2c, membrane preparations, [3H]rauwolscine; read-out: α2c pKi (converted)
T3 construct: The entire coding region of α2c (1383 bp), including 2 bp of 5′ UT and 400 bp of 3′ UT; expressed in transfected cells; host or cells: LM(tk−) cells (L-α2c, ATCC CRL-11181), vector pCEXV-3
T3 sequence (P18825 1-462): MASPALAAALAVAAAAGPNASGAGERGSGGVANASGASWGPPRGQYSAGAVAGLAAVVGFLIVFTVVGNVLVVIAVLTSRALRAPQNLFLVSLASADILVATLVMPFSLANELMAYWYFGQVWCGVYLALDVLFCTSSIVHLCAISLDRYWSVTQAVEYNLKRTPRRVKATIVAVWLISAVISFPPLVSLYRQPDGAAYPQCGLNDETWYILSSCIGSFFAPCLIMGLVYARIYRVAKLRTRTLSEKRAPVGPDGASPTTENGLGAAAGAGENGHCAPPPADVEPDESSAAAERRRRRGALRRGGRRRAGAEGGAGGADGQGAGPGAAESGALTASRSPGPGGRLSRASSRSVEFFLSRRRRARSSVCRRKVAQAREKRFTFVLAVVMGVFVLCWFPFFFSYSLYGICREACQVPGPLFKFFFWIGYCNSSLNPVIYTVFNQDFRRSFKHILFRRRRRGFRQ
Procedure: as §1, §2
The insert housing this coding region was a 1.8 kb Ncol/EcoR1 human spleen genomic fragment which was end-blunted by either T4 polymerase or Klenow fragment of DNA polymerase. Stable cell lines were selected as described above.
as §4

[6] = target: T3, human α2c adrenergic receptor; assay: α2 agonist activity: inhibition of forskolin-stimulated cAMP synthesis, α2c cells; format: cell-based; conditions: inhibition of forskolin-stimulated cAMP, cloned human α2c; for EC50: read-out: α2c pEC50 (converted)
Procedure: as §1, §2, §3

[7] = inhibition of forskolin-stimulated cAMP, cloned human α2a

SMILES: CC1(C)CCCc2cc(NC3=NCCN3)cnc21 (as salt: fumarate)
- melting point: 185 to 186 °C (dec.)

SMILES: c1nc2c(cc1NC1=NCCN1)CSCC2 (as salt: fumarate) [Example 25, 2-(5,6,7,8-tetrahydro-6-thia-quinolin-3-yl)amino-2-imidazoline]
- melting point: 199.5 to 200.5 °C

SMILES: CON=C1CCCc2ccc(NC3=NCCN3)cc21 (as salt: fumarate) [Example 8, 2-(1,2,3,4-Tetrahydro-1-methoxyimino-naphth-7-yl)amino-2-imidazoline]
- melting point: 201 to 202 °C (dec.)

SMILES: Cc1nc2c(c(C)c1NC1=NCCN1)CCC2 [Example 30, 2-(5,6-Cyclopenteno-2,4-dimethyl-pyrid-3-yl)amino-2-imidazoline]
- pEC50 [1]: 8.53
- α2a IA (Intrinsic Activity) [1, 7]: (1.00)
- Ki [2]: 36.3 nM
- α2b IA (Intrinsic Activity) [3]: (0.43)
- EC50 [3]: 148 nM
- Ki [4]: 17.8 nM
- Ki [5]: 309 nM
- α2c IA (Intrinsic Activity) [6]: (1.00)
- EC50 [6]: 6.31 nM

SMILES: Brc1cc2c(c(Br)c1NC1=NCCN1)CCC2
- melting point: 163 to 164 °C

SMILES: CC(=O)N1CCc2cc(NC3=NCCN3)ccc21 (as salt: fumarate) [Example 9, 2-(1-Acetyl-indolin-5-yl)amino-2-imidazoline]
- melting point: 200 to 203 °C (dec.)

SMILES: Cc1cccc(C(C)c2cnc[nH]2)c1C (centres unmarked) [Medetomidine, reference compound]
- α2a IA (Intrinsic Activity) [1, 7]: (1.00)
- Ki [5]: 5.37 nM
- α2c IA (Intrinsic Activity) [6]: (1.00)
- EC50 [6]: 1.48 nM

SMILES: Cc1nc2c(c(C)c1NC1=NCCN1)CCC2 (as salt: fumarate) [Example 30, 2-(5,6-Cyclopenteno-2,4-dimethyl-pyrid-3-yl)amino-2-imidazoline]
- melting point: 220 to 221 °C

SMILES: CC1CCCc2cc(NC3=NCCN3)cnc21 (centres unmarked) (as salt: fumarate)
- melting point: 155 to 160 °C (dec.)

SMILES: c1nc2c(cc1NC1=NCCN1)CCC2 (as salt: fumarate) [Example 21, 2-(2,3-Cyclopentenopyrid-5-yl)amino-2-imidazoline]
- melting point: 182 to 183.5 °C

SMILES: O=C1CCCc2ccc(NC3=NCCN3)c(Br)c21 (as salt: fumarate) [Example 5, 2-(8-Bromo-1,2,3,4-Tetrahydro-1-oxo-naphth-7-yl)amino-2-imidazoline]
- melting point: 204 to 207 °C (dec.)

SMILES: OC1CCCc2ccc(NC3=NCCN3)cc21 (centres unmarked) (as salt: fumarate)
- melting point: 180 to 182 °C (dec.)

SMILES: O=C1CCCc2ccc(NC3=NCCN3)cc21 (as salt: fumarate) [Example 4, 2-(1,2,3,4-Tetrahydro-1-oxo-naphth-7-yl)amino-2-imidazoline]
- melting point: 198 to 201 °C (dec.)

SMILES: c1nc2c(cc1NC1=NCCN1)COCC2 (as salt: fumarate)
- melting point: 201 to 202.5 °C

SMILES: Brc1nc2c(c(Br)c1NC1=NCCN1)CCC2 [Example 29, 2-(2,4-Dibromo-5,6-cyclopentenopyrid-3-yl)amino-2-imidazoline]
- pEC50 [1]: 7.80
- α2a IA (Intrinsic Activity) [1, 7]: (1.00)
- Ki [2]: 51.3 nM
- α2b IA (Intrinsic Activity) [3]: (0.40)
- EC50 [3]: 91.2 nM
- Ki [4]: 14.8 nM
- Ki [5]: 251 nM
- α2c IA (Intrinsic Activity) [6]: (1.00)
- EC50 [6]: 13.8 nM

SMILES: O=[N+]([O-])c1cc2c(cc1NC1=NCCN1)CCC2 (as salt: fumarate)
- melting point: 213 to 214 °C (dec.)

SMILES: c1nc2c(cc1NC1=NCCN1)CCCC2 (as salt: fumarate)
- melting point: 201 to 203 °C

SMILES: Br.Brc1cc2c(cc1NC1=NCCN1)CCC2
- melting point: 220 to 221 °C

SMILES: C1=NC(Cc2ccnc3ccccc23)CN1.O=C(O)/C=C/C(=O)O (centres unmarked)
- melting point: 180 to 182 °C

SMILES: CC1CCc2ncc(NC3=NCCN3)cc2C1 (centres unmarked) (as salt: fumarate)
- melting point: 192 to 195 °C (dec.)

SMILES: Brc1c(NC2=NCCN2)ccc2nccnc12 [UK-14, 304, reference compound]
- α2c IA (Intrinsic Activity) [6]: (1.00)

SMILES: CC(c1c[nH]cn1)c1cc(-c2ccccc2)nc2ccccc12 (centres unmarked) [Example 36, 4-[1-(1H-Imidazol-4-yl)-ethyl]-2-phenyl-quinoline dihydrochloride]
- EC50 ([1]; inhibition of forskolin-stimulated cAMP, cloned human α2a, read-out: α2a pEC50 (converted)): 10000 nM
- Ki [2]: 40.7 nM
- EC50 [3]: 2820 nM
- Ki [4]: 2.69 nM
- Ki [5]: 16.2 nM
- EC50 [6]: 7.24 nM

SMILES: CC1CCCc2ccc(NC3=NCCN3)cc21 (centres unmarked) (as salt: fumarate)
- melting point: 185 to 187 °C (dec.)
